Measurements reported in patent US11873298B2, “Compounds and uses thereof” (JANSSEN PHARMACEUTICA NV, priority 2017, dated 2024).

Experiments:
SCD1 = target: T1, SCD1 (Homo sapiens, UniProt O00767); experiment: Growth inhibition of humanized yeast strain expressing SCD1 as sole desaturase; format: cell-based
T1 construct: host or cells: S. cerevisiae ole1Δ strain (W303 pdr1Δ pdr3Δ background), plasmid pRS316 with TDH3 promoter and CYC1 terminator
T1 sequence (O00767 1-359): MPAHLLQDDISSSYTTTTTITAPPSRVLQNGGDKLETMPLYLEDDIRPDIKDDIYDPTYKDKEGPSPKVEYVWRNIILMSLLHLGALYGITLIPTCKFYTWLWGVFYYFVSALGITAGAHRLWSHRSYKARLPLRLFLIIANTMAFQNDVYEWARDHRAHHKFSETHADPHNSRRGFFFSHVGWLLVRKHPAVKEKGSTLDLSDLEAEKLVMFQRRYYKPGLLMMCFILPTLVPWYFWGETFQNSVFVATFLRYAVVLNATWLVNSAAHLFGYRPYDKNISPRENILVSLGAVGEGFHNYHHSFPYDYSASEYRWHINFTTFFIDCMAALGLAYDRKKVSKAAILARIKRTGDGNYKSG
Description: Strain oleΔ (yeast ole1 deletion mutant) was constructed by deleting OLE1 with NAT-MX6 in BY4741, amplifying the deletion cassette from the genomic DNA of the resulting strain with primers flanking the ORF by 1000 bp upstream and downstream, transforming the resulting deletion cassette into W303 pdr1Δ pdr3Δ, and plating transformants on YPD media containing G418 (200 μg/mL) and nourseothricin ([…]) with 0.01% TWEEN®-20 and 0.5 mM oleic and palmitoleic acids.
The coding sequence of yeast OLE1 was also cloned into this plasmid). These clones were then transformed into the ole1Δ strain and plated on CSM-Ura media (CSM lacking uracil) with 2% glucose (w/v) and independent colonies were isolated and amplified.
All compound profiling experiments were performed using the same basic protocol. Different genetic backgrounds (e.g., gene deletions) or conditions (e.g., addition of oleic and palmitoleic acid) were replaced as indicated below.
Yeast were cultured using standard techniques in complete synthetic media (CSM) and yeast nitrogen base supplemented with 2% (w/v) carbon source (glucose, raffinose, or galactose) to regulate the expression of the toxic disease protein. An initial starter culture was inoculated in 3 mL CSM-Glucose media and incubated overnight in a 30° C. shaker incubator (225 rpm). Saturated morning cultures were then diluted 1:20 in fresh CSM-Raffinose media and grown for 6 h to an OD600 (optical density) of ˜0.4-0.8 at 30° C. with shaking.
Compound administration was performed in two separate steps. First, 15 μL of CSM-Galactose (induces expression of toxic protein) was dispensed into clear 384 well assay plates using a MULTIDROP™ Combi reagent dispenser. […] The cultures described above were then diluted to a 2× concentration (0.03 and 0.08 for alpha-synuclein and ApoE, final ODsoo of 0.015 and 0.04) in CSM-Galactose. For wild-type and Ole1/SCD1/SCD5 plasmid-containing strains, the 2× cell density was 0.02. […] For 96-well assays (FIGS. 1A and 1B), compound dilutions in DMSO were generated in 96 well plates and 1 μL was manually pipetted into 96 well clear bottom assay plates.
For experiments using a plasmid-borne copy of Ole1, SCD1, or SCD5 (FIGS. 3B, 6, and 7), media lacking uracil (SX-Ura, where X is glucose, raffinose, or galactose), was used for all steps of the compound profiling protocol to ensure its maintenance throughout the assay.
After yeast delivery, assay plates were incubated under humidified conditions at 30° C. for 24 to 40 h. ApoE4 rescue experiments were stopped at 24 h, aSyn experiments at 40 h, Ole1 at 24 h, and SCD1/SCD5 at 40 h. The growth of yeast was monitored by reading the ODsoo of each well using a microplate reader (Perkin Elmer EnVision™).

SCD5 = target: T2, SCD5 (Homo sapiens, UniProt Q86SK9); experiment: Growth inhibition of humanized yeast strain expressing SCD5 as sole desaturase; format: cell-based
T2 construct: host or cells: S. cerevisiae ole1Δ strain (W303 pdr1Δ pdr3Δ background), plasmid pRS316 with TDH3 promoter and CYC1 terminator
T2 sequence (Q86SK9 1-330): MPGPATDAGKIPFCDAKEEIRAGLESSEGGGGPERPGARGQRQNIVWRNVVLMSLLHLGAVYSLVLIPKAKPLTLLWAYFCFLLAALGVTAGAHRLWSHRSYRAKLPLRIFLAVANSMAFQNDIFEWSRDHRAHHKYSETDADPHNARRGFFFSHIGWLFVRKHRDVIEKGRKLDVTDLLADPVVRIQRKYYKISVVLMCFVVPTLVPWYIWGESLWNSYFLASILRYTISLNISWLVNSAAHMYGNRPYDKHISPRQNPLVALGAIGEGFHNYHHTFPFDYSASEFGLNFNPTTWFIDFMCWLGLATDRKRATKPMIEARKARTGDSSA
How it was run: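 ole1Δ yeast (W303 pdr1Δ pdr3Δ background) carrying plasmid-borne Ole1, SCD1 or SCD5, grown in uracil-free media; cultures pre-grown in raffinose, seeded at 2× density 0.02 in galactose media with compound. Growth read as OD600 after 24 h at 30° C. for Ole1, 40 h for SCD1/SCD5.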

[1] = humanized yeast strain expressing SCD1
[2] = humanized yeast strain expressing SCD5
[3] = growth inhibition of humanized yeast strain expressing human SCD1
[4] = growth inhibition of humanized yeast strain expressing human SCD5

| SMILES | IC50 (SCD1; [1]) | IC50 (SCD5; [2]) | IC50 (SCD1; [3]) | IC50 (SCD5; [4]) |
| --- | --- | --- | --- | --- |
| C=C(C)c1ccc(C(=O)N2CCC(c3nc(-c4ccc5cnn(C)c5c4)no3)CC2)nc1 [Compound 501] | 12.2 µM | 21.3 µM | – | – |
| Cc1nn(C)c2cc(-c3noc(C4CCN(C(=O)OC(C)(C)C)CC4(F)F)n3)ccc12 (centres unmarked) [Compound 504] | > 45 µM | 14.8 µM | – | – |
| CC(C)n1ncc2ccc(-c3noc(C4CCNCC4(F)F)n3)cc21 (centres unmarked) [Compound 508] | > 45 µM | > 45 µM | – | – |
| CC(C)n1ncc2ccc(-c3noc(C4CCN(C(=O)OC(C)(C)C)C=C4F)n3)cc21 (centres unmarked) [Compound 509] | > 45 µM | > 45 µM | – | – |
| Cc1nn(C)c2cc(-c3noc(C4CCN(C(=O)CN)CC4(F)F)n3)ccc12 (centres unmarked) [Compound 512] | > 45 µM | > 45 µM | – | – |
| CC(C)n1ncc2ccc(-c3noc(N4C[C@@H]5CN(C(=O)OC(C)(C)C)C[C@H]5C4)n3)cc21 [Compound 513] | > 45 µM | > 45 µM | – | – |
| Cc1nn(C)c2cc(-c3noc(C4CCN(c5nc6ccccc6o5)CC4)n3)ccc12 [Compound 514] | > 45 µM | > 45 µM | – | – |
| CC(C)n1ncc2ccc(N3CC4(CCN(C(=O)OC(C)(C)C)CC4)OC3=O)cc21 [Compound 515] | 16.5 µM | > 45 µM | – | – |
| CC(C)n1ncc2ccc(-c3noc(C4CCN(S(=O)(=O)C5CCCCC5)CC4)n3)cc21 [Compound 516] | > 45 µM | > 45 µM | – | – |
| COC1CCC(S(=O)(=O)N2CCC(c3nc(-c4ccc5cnn(C(C)C)c5c4)no3)CC2)CC1 (centres unmarked) [Compound 517] | > 45 µM | > 45 µM | – | – |
| Cc1nn(C)c2cc(-c3noc(C4CCN(C(=O)CCC(F)(F)F)CC4)n3)ccc12 [Compound 518] | > 45 µM | 2.95 µM | – | – |
| CC(C)n1ncc2ccc(-c3noc(C4CCN(C(=O)CNC(=O)c5ccccc5)CC4(F)F)n3)cc21 (centres unmarked) [Compound 519] | > 45 µM | > 45 µM | – | – |
| CC(C)n1ncc2ccc(-c3noc(C4CCN(C(=O)CNC(=O)c5ccc(F)cc5)CC4(F)F)n3)cc21 (centres unmarked) [Compound 520] | > 45 µM | > 45 µM | – | – |
| CC(C)n1ncc2ccc(-c3noc(C4CCN(C(=O)CNC(=O)c5ccc(Cl)cc5)CC4(F)F)n3)cc21 (centres unmarked) [Compound 521] | > 45 µM | 8.79 µM | – | – |
| CC(C)n1ncc2ccc(-c3noc(C4CCN(C(=O)CNC(=O)c5cccc(Cl)c5)CC4(F)F)n3)cc21 (centres unmarked) [Compound 522] | > 45 µM | > 45 µM | – | – |
| CC(C)n1ncc2ccc(-c3noc(C4CCN(C(=O)CNC(=O)c5cccc(C#N)c5)CC4(F)F)n3)cc21 (centres unmarked) [Compound 523] | > 45 µM | > 45 µM | – | – |
| CC(C)n1ncc2ccc(-c3nc(C4CCN(C(=O)OC(C)(C)C)C4)no3)cc21 (centres unmarked) [Compound 524] | > 45 µM | 2.5 µM | – | – |
| CC(C)n1ncc2ccc(-c3noc(C4CCN(C(=O)CNC(=O)OC(C)(C)C)CC4(F)F)n3)cc21 (centres unmarked) [Compound 525] | > 45 µM | > 45 µM | – | – |
| Cc1nn(C)c2cc(-c3noc([C@H]4CC[C@H](O)CC4)n3)ccc12 [Compound 526] | > 45 µM | > 45 µM | – | – |
| Cc1nn(C)c2cc(-c3noc(C4CCN(C(=O)CNC(=O)OC(C)(C)C)CC4(F)F)n3)ccc12 (centres unmarked) [Compound 527] | 0.958 µM | 1.46 µM | – | – |
| CC(C)n1ncc2ccc(-c3nc(C4CCNC4)no3)cc21 (centres unmarked) [Compound 531] | > 45 µM | > 45 µM | – | – |
| CC(C)n1ncc2ccc(-c3nc(C4CCN(C(=O)CC(C)(C)C)C4)no3)cc21 (centres unmarked) [Compound 542] | > 45 µM | 7.33 µM | – | – |

| SMILES | IC50 (SCD1; [1]) | IC50 (SCD5; [2]) | IC50 (SCD1; [3]) | IC50 (SCD5; [4]) |
| --- | --- | --- | --- | --- |
| CC(C)n1ncc2ccc(-c3noc(N4CCN(C(=O)c5cccc(F)c5)CC4)n3)cc21 [Compound 547] | > 45 µM | 44.3 µM | – | – |
| CC(C)n1ncc2ccc(-c3noc(C4CCN(C(=O)CNC(=O)c5cccc(F)c5)CC4(F)F)n3)cc21 (centres unmarked) [Compound 551] | > 45 µM | > 45 µM | – | – |
| CC(C)n1ncc2ccc(-c3noc(C4CCN(C(=O)CNC(=O)c5ccc(C#N)cc5)CC4(F)F)n3)cc21 (centres unmarked) [Compound 552] | > 45 µM | > 45 µM | – | – |
| Cc1nn(C)c2cc(-c3noc(C4CCN(C(=O)CNC(=O)c5ccc(Cl)cn5)CC4(F)F)n3)ccc12 (centres unmarked) [Compound 553] | 5.71 µM | 0.885 µM | – | – |
| Cc1nn(C)c2cc(-c3noc(C4CCN(C(=O)CNC(=O)c5ccc(Cl)cc5)CC4(F)F)n3)ccc12 (centres unmarked) [Compound 554] | 4.08 µM | 1.07 µM | – | – |
| Cc1nn(C)c2cc(-c3noc(C4CCN(C(=O)CNC(=O)c5ccc(F)cc5)CC4(F)F)n3)ccc12 (centres unmarked) [Compound 557] | > 45 µM | 6.03 µM | – | – |
| CC(C)n1ncc2ccc(-c3noc(C4CCCN(C(=O)OC(C)(C)C)C4)n3)cc21 (centres unmarked) [Compound 563] | > 45 µM | > 45 µM | – | – |
| Cc1nn(C)c2cc(-c3noc(C4CCN(CC5COC(=O)C5)CC4)n3)ccc12 (centres unmarked) [Compound 567] | > 45 µM | > 45 µM | – | – |
| Cc1nn(C)c2cc(-c3noc([C@H]4CCN(C(=O)CNC(=O)c5ccccc5)CC4(F)F)n3)ccc12 [Compound 578] | 8.46 µM | 1.49 µM | – | – |
| CC(C)n1ncc2ccc(-c3noc(C4CCN(C(=O)CNC(=O)C5CC5)CC4(F)F)n3)cc21 (centres unmarked) [Compound 579] | > 45 µM | > 45 µM | – | – |
| CC(C)n1ncc2ccc(-c3nc(N4CCN(C(=O)c5ccccc5Cl)CC4)no3)cc21 [Compound 580] | 14.1 µM | 0.022 µM | – | – |
| CC(CF)n1ncc2ccc(-c3noc(C4CCN(C(=O)CC(C)(C)C)CC4)n3)cc21 (centres unmarked) [Compound 583] | > 45 µM | 0.989 µM | – | – |
| CC(C)n1ncc2ccc(-c3noc(C4CCN(C(=O)OC5(C)CC5)CC4(F)F)n3)cc21 (centres unmarked) [Compound 584] | > 45 µM | 5.34 µM | – | – |
| CC(CF)n1ncc2ccc(-c3noc(C4CCN(C(=O)CC5(C)CC5)CC4)n3)cc21 (centres unmarked) [Compound 585] | > 45 µM | 1.81 µM | – | – |
| Cc1nn(C)c2cc(-c3noc(C4CCN(C(=O)CNC(=O)c5ccc(C#N)cc5)CC4(F)F)n3)ccc12 (centres unmarked) [Compound 601] | > 45 µM | 5.69 µM | – | – |
| Cc1nn(C)c2cc(-c3noc(C4CCN(C(=O)CNC(=O)c5cccc(F)c5)CC4(F)F)n3)ccc12 (centres unmarked) [Compound 602] | 15.9 µM | 2.74 µM | – | – |
| Cc1nn(C)c2cc(-c3noc(C4CCN(C(=O)CNC(=O)c5cccc(Cl)c5)CC4(F)F)n3)ccc12 (centres unmarked) [Compound 603] | 7.26 µM | 2.41 µM | – | – |
| Cc1nn(C)c2cc(-c3noc(C4CCN(C(=O)CNC(=O)c5cccc(C#N)c5)CC4(F)F)n3)ccc12 (centres unmarked) [Compound 604] | > 45 µM | 6.12 µM | – | – |
| CC(C)n1ncc2ccc(-c3nc(C4CN(C(=O)OC(C)(C)C)C4)no3)cc21 [Compound 605] | 31.8 µM | 0.513 µM | – | – |
| CC(C)n1ncc2ccc(-c3nc(C4CN(C(=O)CC(C)(C)C)C4)no3)cc21 [Compound 606] | – | – | > 45 µM | 0.737 µM |
| CC(CF)n1ncc2ccc(-c3noc(C4CCN(C(=O)OC5(C)CC5)CC4)n3)cc21 (centres unmarked) [Compound 607] | – | – | > 45 µM | 0.511 µM |
